Reference: the NIST ThermoML archive (doi:10.1021/acs.jced.5b00242)
± gives the expanded uncertainty stated by the source.

Tests used:
[1] = refractive index (Na D-line) (dimensionless); conditions: 101 kPa, Liquid, Standard Abbe refractometry
[2] = Liquid; for mass density: Vibrating tube method
[3] = refractive index (Na D-line) (dimensionless); xn = mol fraction of the nth substance listed; conditions: 101 kPa, Liquid, Standard Abbe refractometry, x1 = 1
[4] = xn = mol fraction of the nth substance listed; conditions: 101 kPa, Liquid, x1 = 1; for mass density: Vibrating tube method

CCn1cc[n+](C)c1.O=C([O-])[C@@H]1CCCN1 [1-ethyl-3-methyl-1H-imidazolium L-prolinate]
[1]
Conditions	refractive index
293.15 K	1.52291 ± 0.00069
298.15 K	1.52151 ± 0.00069
303.15 K	1.52009 ± 0.00069
308.15 K	1.5187 ± 0.00069
313.15 K	1.51731 ± 0.00069
318.15 K	1.51591 ± 0.00069
323.15 K	1.51454 ± 0.00069
328.15 K	1.51315 ± 0.00069
333.15 K	1.51177 ± 0.00069
338.15 K	1.51035 ± 0.00069
343.15 K	1.50897 ± 0.00069
348.15 K	1.50757 ± 0.00069
353.15 K	1.5062 ± 0.00069

[2], 101 kPa, Stabinger Viscometer
Conditions	viscosity [mPa·s]
293.15 K	1928.4 ± 240
298.15 K	1194.6 ± 130
303.15 K	771.51 ± 72
308.15 K	517.61 ± 42
313.15 K	359.21 ± 25
318.15 K	256.92 ± 15
323.15 K	188.66 ± 9.1
328.15 K	141.76 ± 5.8
333.15 K	108.85 ± 3.8
338.15 K	85.12 ± 2.6
343.15 K	67.69 ± 1.8
348.15 K	54.73 ± 1.4
353.15 K	44.89 ± 1.2

[2], 101.33 kPa
Conditions	mass density [kg/m3]
293.15 K	1145.9 ± 7.3
298.15 K	1142.8 ± 7.2
303.15 K	1139.6 ± 7.2
308.15 K	1136.4 ± 7.2
313.15 K	1133.2 ± 7.2
318.15 K	1130.1 ± 7.1
323.15 K	1127.1 ± 7.1
328.15 K	1124 ± 7.1
333.15 K	1121 ± 7.1
338.15 K	1118 ± 7.1
343.15 K	1115 ± 7
348.15 K	1112 ± 7
353.15 K	1109.1 ± 7

CCn1cc[n+](C)c1.N#C[C-](C#N)C#N [1-ethyl-3-methyl-1H-imidazolium tricyanomethanide]
[1]
Conditions	refractive index
293.15 K	1.51454 ± 0.00063
298.15 K	1.51286 ± 0.00063
303.15 K	1.51114 ± 0.00063
308.15 K	1.50938 ± 0.00063
313.15 K	1.50765 ± 0.00063
318.15 K	1.50595 ± 0.00063
323.15 K	1.50419 ± 0.00063
328.15 K	1.50255 ± 0.00063
333.15 K	1.50087 ± 0.00063
338.15 K	1.49921 ± 0.00063
343.15 K	1.49757 ± 0.00063
348.15 K	1.49593 ± 0.00063
353.15 K	1.49429 ± 0.00063

[2], 101 kPa, Stabinger viscometer
Conditions	viscosity [mPa·s]
293.15 K	16.62 ± 0.7
298.15 K	14.19 ± 0.6
303.15 K	12.18 ± 0.51
308.15 K	10.58 ± 0.44
313.15 K	9.02 ± 0.38
318.15 K	8.2 ± 0.34
323.15 K	7.31 ± 0.31
328.15 K	6.56 ± 0.28
333.15 K	5.72 ± 0.24
338.15 K	5.38 ± 0.23
343.15 K	4.91 ± 0.21
348.15 K	4.5 ± 0.19
353.15 K	3.98 ± 0.17

[2], 101 kPa
Conditions	mass density [kg/m3]
293.15 K	1085 ± 4
298.15 K	1081 ± 4
303.15 K	1077 ± 4
308.15 K	1074 ± 4
313.15 K	1070 ± 4
318.15 K	1067 ± 4
323.15 K	1064 ± 4
328.15 K	1060 ± 4
333.15 K	1057 ± 4
338.15 K	1054 ± 4
343.15 K	1050 ± 4
348.15 K	1047 ± 4
353.15 K	1043 ± 4

CCn1cc[n+](C)c1.N#C[C-](C#N)C#N [1-ethyl-3-methyl-1H-imidazolium tricyanomethanide] + CC[n+]1ccn(C)c1.N[C@@H](CO)C(=O)[O-]
Conditions	mass density, [4] [kg/m3]	refractive index, [3]
293.15 K	1084.6 ± 15	1.51454 ± 0.00063
298.15 K	1081 ± 15	1.51286 ± 0.00063
303.15 K	1077.5 ± 15	1.51114 ± 0.00063
308.15 K	1073.9 ± 15	1.50938 ± 0.00063
313.15 K	1070.4 ± 15	1.50765 ± 0.00063
318.15 K	1067.1 ± 15	1.50595 ± 0.00063
323.15 K	1063.7 ± 15	1.50419 ± 0.00063
328.15 K	1060.3 ± 15	1.50255 ± 0.00063
333.15 K	1056.9 ± 15	1.50087 ± 0.00063
338.15 K	1053.6 ± 15	1.49921 ± 0.00063
343.15 K	1050.2 ± 15	1.49757 ± 0.00063
348.15 K	1046.8 ± 15	1.49593 ± 0.00063
353.15 K	1043.4 ± 15	1.49429 ± 0.00063

[4], Stabinger Viscometer
Conditions	viscosity [mPa·s]
293.15 K	16.62 ± 0.7
298.15 K	14.19 ± 0.6
303.15 K	12.18 ± 0.51
308.15 K	10.58 ± 0.44
313.15 K	9.02 ± 0.38
318.15 K	8.2 ± 0.34
323.15 K	7.31 ± 0.31
328.15 K	6.56 ± 0.28
333.15 K	5.72 ± 0.24
338.15 K	5.38 ± 0.23
343.15 K	4.91 ± 0.21
348.15 K	4.5 ± 0.19
353.15 K	3.98 ± 0.17

CCn1cc[n+](C)c1.N#C[C-](C#N)C#N [1-ethyl-3-methyl-1H-imidazolium tricyanomethanide] + CCn1cc[n+](C)c1.C[C@H](N)C(=O)[O-]
Conditions	mass density, [4] [kg/m3]	refractive index, [3]
293.15 K	1084.6 ± 15	1.51454 ± 0.00063
298.15 K	1081 ± 15	1.51286 ± 0.00063
303.15 K	1077.5 ± 15	1.51114 ± 0.00063
308.15 K	1073.9 ± 15	1.50938 ± 0.00063
313.15 K	1070.4 ± 15	1.50765 ± 0.00063
318.15 K	1067.1 ± 15	1.50595 ± 0.00063
323.15 K	1063.7 ± 15	1.50419 ± 0.00063
328.15 K	1060.3 ± 15	1.50255 ± 0.00063
333.15 K	1056.9 ± 15	1.50087 ± 0.00063
338.15 K	1053.6 ± 15	1.49921 ± 0.00063
343.15 K	1050.2 ± 15	1.49757 ± 0.00063
348.15 K	1046.8 ± 15	1.49593 ± 0.00063
353.15 K	1043.4 ± 15	1.49429 ± 0.00063

[4], Stabinger Viscometer
Conditions	viscosity [mPa·s]
293.15 K	16.62 ± 0.7
298.15 K	14.19 ± 0.6
303.15 K	12.18 ± 0.51
308.15 K	10.58 ± 0.44
313.15 K	9.02 ± 0.38
318.15 K	8.2 ± 0.34
323.15 K	7.31 ± 0.31
328.15 K	6.56 ± 0.28
333.15 K	5.72 ± 0.24
338.15 K	5.38 ± 0.23
343.15 K	4.91 ± 0.21
348.15 K	4.5 ± 0.19
353.15 K	3.98 ± 0.17

CCn1cc[n+](C)c1.N#C[C-](C#N)C#N [1-ethyl-3-methyl-1H-imidazolium tricyanomethanide] + CCn1cc[n+](C)c1.NCC(=O)[O-]
Conditions	mass density, [4] [kg/m3]	refractive index, [3]
293.15 K	1084.6 ± 13	1.51454 ± 0.00063
298.15 K	1081 ± 13	1.51286 ± 0.00063
303.15 K	1077.5 ± 13	1.51114 ± 0.00063
308.15 K	1073.9 ± 13	1.50938 ± 0.00063
313.15 K	1070.4 ± 13	1.50765 ± 0.00063
318.15 K	1067.1 ± 13	1.50595 ± 0.00063
323.15 K	1063.7 ± 13	1.50419 ± 0.00063
328.15 K	1060.3 ± 13	1.50255 ± 0.00063
333.15 K	1056.9 ± 13	1.50087 ± 0.00063
338.15 K	1053.6 ± 13	1.49921 ± 0.00063
343.15 K	1050.2 ± 13	1.49757 ± 0.00063
348.15 K	1046.8 ± 13	1.49593 ± 0.00063
353.15 K	1043.4 ± 12	1.49429 ± 0.00063

[4], Stabinger viscometer
Conditions	viscosity [mPa·s]
293.15 K	16.62 ± 0.7
298.15 K	14.19 ± 0.6
303.15 K	12.18 ± 0.51
308.15 K	10.58 ± 0.44
313.15 K	9.02 ± 0.38
318.15 K	8.2 ± 0.34
323.15 K	7.31 ± 0.31
328.15 K	6.56 ± 0.28
333.15 K	5.72 ± 0.24
338.15 K	5.38 ± 0.23
343.15 K	4.91 ± 0.21
348.15 K	4.5 ± 0.19
353.15 K	3.98 ± 0.17
